We go through one compound from article PMC2723721 (Bioorganic & medicinal chemistry, 2009).

In this experiment the target is p47phox (Homo sapiens, UniProt P14598). Description: ELISA: his-p47phox binding to immobilized biotin-p22phox peptide with […] IAA. The class given is biochemical.

SMILES strings stand for the structures.

Chain of p47phox (P13498 2-195): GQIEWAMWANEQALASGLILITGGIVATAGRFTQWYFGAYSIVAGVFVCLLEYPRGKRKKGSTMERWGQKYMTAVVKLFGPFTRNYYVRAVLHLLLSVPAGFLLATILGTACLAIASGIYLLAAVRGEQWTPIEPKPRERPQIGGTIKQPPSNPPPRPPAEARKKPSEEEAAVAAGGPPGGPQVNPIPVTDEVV
Chain of p47phox (P14598 whole entry): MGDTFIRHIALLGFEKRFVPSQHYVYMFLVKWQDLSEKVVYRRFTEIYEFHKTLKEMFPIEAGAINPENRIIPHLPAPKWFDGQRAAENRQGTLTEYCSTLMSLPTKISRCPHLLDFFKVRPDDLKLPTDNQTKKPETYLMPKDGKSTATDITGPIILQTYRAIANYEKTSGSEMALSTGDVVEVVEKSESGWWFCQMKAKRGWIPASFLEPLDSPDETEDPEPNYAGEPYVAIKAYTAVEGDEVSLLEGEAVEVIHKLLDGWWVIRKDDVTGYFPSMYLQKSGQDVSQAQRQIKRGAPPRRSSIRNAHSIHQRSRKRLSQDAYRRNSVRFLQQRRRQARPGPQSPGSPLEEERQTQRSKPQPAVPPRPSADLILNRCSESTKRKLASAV

As to `NC(=O)CI` [IAA, iodoacetamide], the “% drop in bound p47phox at 1 μM” value was > 50 % drop in bound p47phox at 1 μM.
